# According to patent publication US20130158112A1, “COMPOSITIONS AND METHODS FOR INHIBITING BETA AMYLOID SECRETION” (priority 2011, published 2013):
# “And” between values parts separate entries of the source, which are not always exact repeats. Equal values may be shown once.
# Columns and labels:
# Aβ secretion = assay: Secreted total Aβ ELISA in conditioned media of H4βAPP695 wt cells; assay type: cell-based, human; settings: H4βAPP695 wt cells
# How it was run: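 H4 […] cells stably expressing wild-type βAPP695 (CMV promoter), serum-starved 24 h, then exposed to drug in DMSO or vehicle for 24 h before Aβ in conditioned media was measured. Primary cortical neurons came from E18 APPswe/PSEN1dE9 mice on C57BL/6 background.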
# Caco-2 cells = assay: Epithelial transcellular transport of drug activity through Caco-2 monolayers; assay type: in vitro ADME
# Description: H4βAPP695 wt cells, a human […] cell line stably transfected with a wtβAPP695 expression vector construct under the control of a CMV promoter (kindly provided by Dr. Chris Eckman from Mayo Clinic, Florida) were cultured as previously described. Twenty-four hours before drug treatment, the media was replaced with serum-free media. Cells were then incubated with drugs (dissolved in DMSO) or vehicle for 24 h for collection of conditioned media and cell lysates. For the PKC inhibitors experiment, three inhibitors were treated 30 min prior to drug challenge. Primary cortical neurons were prepared from embryonic day 18 APP and presenilin 1 (APPswe, PSEN1dE9) transgenic mice on the C57BL/6 genetic background (Jackson Laboratories, strain no. 5864) as previously described. THLE-3 human hepatoma cells (from ATCC) were plated in 24-well plates that were precoated with 10 μg/mL bovine serum albumin, 10 μg/mL fibronectin, and 30 μg/mL bovine type I collagen. The cells were grown in BEGM media (Clonetics) until confluent and treated with drugs at 20 μM for 24 h. This conditioned media was harvested, diluted 1:1 in serum-free medium, and incubated with H4βAPP695 wt cells for 24 h prior to analysis of secreted Aβ, which was compared to the effect of 10 μM drug treatments without prior incubation with the THLE-3 cells. Caco-2 cells (ATCC) were plated in 12-well plates with Transwell inserts (Costar) at 70000 cells per well and grown for 21 days. The media volume of the apical and basal chambers was 0.5 and 1.5 mL, respectively. Transepithelial resistance was measured in each well and found to be >160 Ω/cm^2. Drugs at 40 μM and 20 μg/mL of lucifer yellow were added in serum-free medium to the apical chamber. Four hours later, the basal chamber media was harvested and used to measure lucifer yellow fluorescence to confirm monolayer integrity as well as for treatment of H4βAPP695 wt cells for 24 h prior to analysis of secreted Aβ, which was compared to the effect of direct addition of 10 μM of the corresponding drug.
# Monolayer integrity was confirmed by high levels of transcellular electrical resistance (>160 ohms/cm^2) and by transcellular impermeability to the fluorescent dye lucifer yellow. […] The concentration of each compound added to the upper chamber would lead to 10 μM in the lower chamber if equilibration was complete, and thus the activity of the lower chamber media was compared to the activity of 10 μM drug added directly to the H4βAPP695 wt cells. […] Compound 1 crossed the monolayer and the bottom chamber media led to a 27% reduction in Aβ production, yielding 38% of the theoretical activity. The compound with the most activity in the lower chamber was compound 48, which decreased Aβ production by 50%, with 71% of its theoretical activity. […] On the basis of the combined activity data from these last two studies, compound 48 was selected as the lead drug for in vivo study.
smiles,measurement,setting,value
O=C(NCCSCc1cccc(Cl)c1)c1c(Cl)cccc1Cl [Compound 1],Aβ lowering activity,Aβ secretion; 1 μM,displayed Aβ lowering activity at 1 μM
same,% β Decrease,"Aβ secretion; 10 μM, relative to vehicle treated control cells",75.3%
same,inhibition at 10 µM,"Aβ secretion; Homo sapiens, 24 h, 10 μM, relative to vehicle treated control cells, read-out: % β Decrease",75.3 ± 11.6%
same,% theoretical activity,Caco-2 cells; % of activity passing through Caco-2 monolayer,38% and 38.4%
same,inhibition at 10 µM,"Caco-2 cells; Homo sapiens, Caco-2, 10 μM drug alone added directly to H4βAPP695 wt cells, read-out: transcellular transport No total Aβ (% decrease)",69.4%
same,inhibition at up to 10 µM,"Caco-2 cells; Homo sapiens, Caco-2, 4 h, lower chamber media after 4 h on Caco-2 monolayer, 10 μM if in equilibrium, read-out: transcellular transport Yes total Aβ (% decrease)",27%
